Source: patent US10081632B2, “Substituted tetrahydropyrido[3′,2′:4,5]pyrrolo[1,2-α]pyrazine-2-carboxamides as RSK inhibitors” (Phoenix Molecular Designs, priority 2016, dated 2018)

Key:
JIMT-1 cells [1] = test: Monolayer growth inhibition, crystal violet assay; format: cell-based; conditions: Homo sapiens; JIMT-1 (HER2), 5 days, single dose on day 1
From the text: (§1) In all instances a single dose was given on day 1 of the experiment. […] Complete (100%) growth suppression was achievable with several of the compounds in multiple different cell lines.

T47D cells [2] = test: Monolayer growth inhibition, crystal violet assay; format: cell-based; conditions: Homo sapiens; T47D (ER/PR), 5 days, single dose on day 1
From the text: as §1

HCC1937 cells [3] = test: Monolayer growth inhibition, crystal violet assay; format: cell-based; conditions: Homo sapiens; HCC1937 (TNBC, BRCA Mutant), 5 days, single dose on day 1
From the text: as §1

MDA-MB-468 cells [4] = test: Monolayer growth inhibition, crystal violet assay; format: cell-based; conditions: Homo sapiens; MDA-MB-468 (TNBC), 5 days, single dose on day 1
From the text: as §1

SUM149-PTXR cells [5] = test: Monolayer growth inhibition, crystal violet assay; format: cell-based; conditions: Homo sapiens; SUM149-PTXR (TNBC, BRCA Mutant), 5 days, single dose on day 1
From the text: (§2) In all instances a single dose was given on day 1 of the experiment.

MDA-MB-435 cells [6] = test: Monolayer growth inhibition, crystal violet assay; format: cell-based; conditions: Homo sapiens; MDA-MB-435 (Melanoma), 5 days, single dose on day 1
From the text: as §2

PC3 cells [7] = test: Monolayer growth inhibition, crystal violet assay; format: cell-based; conditions: Homo sapiens, PC-3; PC3 (Prostate), 5 days, single dose on day 1
From the text: as §2

4T1 cells [8] = test: Monolayer growth inhibition, crystal violet assay; format: cell-based; conditions: Mus musculus; 4T1 (TNBC), 5 days, single dose on day 1
From the text: as §2

HCC1143 cells [9] = test: Monolayer growth inhibition, crystal violet assay; format: cell-based; conditions: Homo sapiens; HCC1143 (TNBC), 5 days, single dose on day 1
From the text: as §2

MDA-MB-231 cells [10] = test: Monolayer growth inhibition, crystal violet assay; format: cell-based; conditions: Homo sapiens; MDA-MB-231 (TNBC), 5 days, single dose on day 1
From the text: as §2

SUM149 cells [11] = test: Monolayer growth inhibition, crystal violet assay; format: cell-based; conditions: Homo sapiens; SUM149 (TNBC, BRCA Mutant), 5 days, single dose on day 1
From the text: as §2

All cell lines [12] = test: Monolayer growth inhibition, crystal violet assay, range over all cell lines; format: cell-based; conditions: 120 h; range of IC50 over all cell lines of the table; read-out: IC50 Values - Crystal Violet (5 Days), Range, All
From the text: as §1

MDA-MB-468 cells [13] = test: Soft agar growth inhibition assay; format: cell-based, Human; conditions: Homo sapiens; MDA-MB-468 (TNBC), 14-22 days
[14] = tested on: phosphorylated Y-box binding protein-1 (YB-1) at serine 102 (P-YB-1S102); test: Immunoblotting of cell signalling, loss of P-YB-1 in MDA-MB-231 cells; conditions: Homo sapiens, MDA-MB-231, read-out: IC50 values for P-YB-1
Procedure: Following desired experimental conditions, breast cancer cell lines grown and treated in 6 well plates or 100 mm culture dishes (Grenier Bio-One) were placed on ice and the supernatant from each well was removed and the cells were washed in cold PBS. Following removal of PBS, cells were exposed to radioimmunoprecipitation assay (RIPA) buffer (50 mM Tris-HCl (pH 8), 150 mM NaCl, 1% NP-40, 0.5% sodium deoxycholate, 0.1% SDS; Fisher Scientific) supplemented with 1% phosphatase inhibitor (Fisher Scientific) and 1% protease inhibitor (Fisher Scientific) for 10 minutes. Samples were transferred to eppendorf tubes, vortexed and then centrifuged at 14 000 rpm for 10 minutes. Supernatants were collected as whole cell lysates.
To begin, the protein content of the lysates was measured using the Bicinchoninic Acid (BCA) Protein Assay Kit (Pierce), which included a protein standard curve generated with bovine serum albumin. Appropriate volumes of samples and loading buffer (50 mM Tris-HCl (pH 6.8), 2% SDS, 10% glycerol, 1% j-mercaptoethanol, 12.5 mM EDTA, 0.02% bromophenol blue) were mixed, ensuring that equal amounts of protein were loaded. For the majority of experiments in this study, 30 μg of protein per well was loaded. Samples were then resolved on SDS-PAGE (polyacrylamide gel electrophoresis) using various percentages of acrylamide gels (8%-12%), depending on the proteins of interest. SDS-PAGE was run in SDS running buffer (25 mM Tris, 192 mM glycine, 0.1% SDS) and then transferred to nitrocellulose membranes (Bio-Rad) in transfer buffer (48 mM Tris, 39 mM glycine, 20% (v/v) methanol) at 100 volts for 90 minutes at room temperature. Immunoblots were then blocked in 5% skim milk in tris-buffered saline with 0.1% Tween-20 (TBS-T; 50 mM Tris-HCl, pH 7.5, 150 mM NaCl, 0.1% (v/v) Tween-20 (Fisher Scientific)) for 1 to 2 hours. Immunoblots were then incubated with selected primary antibodies diluted in TBS-T with 0.1% gelatin (Bio-Rad) and 0.05% sodium azide (Alfa Aesar) overnight. Following washes with TBT-T 4 times for 8 to 10 minutes, immunoblots were incubated with appropriate secondary antibodies conjugated to horseradish peroxidise (Cell Signalling Technology) diluted in TBS-T plus 5% skim milk at a ratio of 1:5000 for 2 hours at room temperature. After an additional round of washes in TBS-T, immunoblots were exposed to combined enhanced chemiluminescence (ECL) reagents (Fisher Scientific) for 1 minute and developed using ChemiDoc MP Imaging System (Bio-Rad). For certain immunoblots, bands of proteins of interest were scanned and band intensity ratios were determined by densitometric analysis (ImageJ). […] Total YB-1 was used as a loading control (1:5000 Abcam). […] To assess whether cells are actively undergoing cell death, the activity of poly ADP ribose polymerase (PARP) (1:1000 CST) was also measured using the immunoblotting method.

All cell lines [15] = test: Monolayer growth inhibition, Alamar blue assay, range over all cell lines; format: cell-based; conditions: 120 h; range of IC50 over all cell lines of the table; read-out: IC50 Values - Alamar Blue (5 Days), Range, All
From the text: as §2

[16] = Solubility assessment, 20 mg/ml solution; format: physicochemical; conditions: 100 mM in DMSO diluted in DMEM growth media to 20 mg/ml
Procedure: Solubility is an important property for therapeutic drug candidates. Poor solubility can lead to low bioavailability resulting in suboptimal drug delivery. It can also prevent the evaluation of test agents in animals because the concentration(s) needed to achieve the desired effect cannot be achieved to poor solubility. For solubility assessments, small molecules targeting RSK were compared. For these assessments, 100 mM solutions of the compounds dissolved in DMSO were diluted in DMEM growth media (Life Technologies) supplemented with fetal bovine serum (FBS, Life Technologies) and 100 units/ml penicillin and 100 units/ml streptomycin (Life Technologies) to make 20 mg/ml solutions. Once diluted, the solutions were vortexed and examined for the formation of precipitates. […] For Compound 26, a 100 mM solution of the compound dissolved in DMSO was diluted in phosphate buffered saline (Life Technologies) to make a 20 mg/ml solution. The stock of […] was chosen because this is the upper end of what would be required to dose mice for a range of studies including MTD, PK, PD and efficacy. The pH of this solution was determined to be 2, as previously described. […] At high concentrations some RSK inhibitors were highly soluble while others were not. Compound 0 is (R)—N-(1-benzyl-1H-pyrazol-4-yl)-9-methyl-6-oxo-6,7,8,9-tetrahydropyrido[3′,2′:4,5]pyrrolo[1,2-a]pyrazine-2-carboxamide. Compound 0 was not soluble, whereas Compounds 18, 20, 21, 25 and 26 were soluble under the same conditions (Table 5).

MDA-MB-231 cells [17] = test: Soft agar growth inhibition assay; format: cell-based; conditions: Homo sapiens; MDA-MB-231 (TNBC), 14-22 days; read-out: IC50 Values - Soft Agar (14-22 Days)
4T1 cells [18] = test: Soft agar growth inhibition assay; format: cell-based; conditions: Mus musculus; 4T1 (TNBC), 14-22 days; read-out: IC50 Values - Soft Agar (14-22 Days)
Procedure: Two agar (Alfa Aesar) solutions (0.8% w/v and 0.4% w/v) were prepared in ultrapure water. The 0.8% agar solution was mixed in equal volumes with 2× media previously prepared from powder (Life Technologies) following the manufacturer's instructions and filter sterilized. The 0.8% agar and media solution was added to 24 well plates (Mandel Scientific) at 500 μl per well. The plates were placed in a humidified incubator at 37° C. with 5% CO2. Next, the 0.4% agar solution was mixed in equal volumes with 2× media. Breast cancer cell lines were added to this solution to achieve a final concentration of 2×10^4 cells per well and […] was added to each well on top of the bottom agar and media layer. […] The plates were returned to the incubator for 10-32 days, with a re-dosing of compounds or DMSO every 7 days. After 10-32 days, colonies were counted in 3 different fields of view for each well.
Representative compounds described herein were tested in the soft agar growth inhibition assay against the 4T1 breast cancer cell line.

JIMT-1 cells [19] = test: Monolayer growth inhibition, Alamar blue assay; format: cell-based; conditions: Homo sapiens; JIMT-1 (HER2), 5 days, single dose on day 1
From the text: as §2

MDA-MB-435 cells [20] = test: Monolayer growth inhibition, Alamar blue assay; format: cell-based; conditions: Homo sapiens; MDA-MB-435 (Melanoma), 5 days, single dose on day 1
From the text: as §2

PC3 cells [21] = test: Monolayer growth inhibition, Alamar blue assay; format: cell-based; conditions: Homo sapiens, PC-3; PC3 (Prostate), 5 days, single dose on day 1
From the text: as §2

HCC1937 cells [22] = test: Monolayer growth inhibition, Alamar blue assay; format: cell-based; conditions: Homo sapiens; HCC1937 (TNBC, BRCA Mutant), 5 days, single dose on day 1
From the text: as §2

4T1 cells [23] = test: Monolayer growth inhibition, Alamar blue assay; format: cell-based; conditions: Mus musculus; 4T1 (TNBC), 5 days, single dose on day 1
From the text: as §2

HCC1143 cells [24] = test: Monolayer growth inhibition, Alamar blue assay; format: cell-based; conditions: Homo sapiens; HCC1143 (TNBC), 5 days, single dose on day 1
From the text: as §2

MDA-MB-231 cells [25] = test: Monolayer growth inhibition, Alamar blue assay; format: cell-based; conditions: Homo sapiens; MDA-MB-231 (TNBC), 5 days, single dose on day 1
From the text: as §2

SUM149 cells [26] = test: Monolayer growth inhibition, Alamar blue assay; format: cell-based; conditions: Homo sapiens; SUM149 (TNBC, BRCA Mutant), 5 days, single dose on day 1
From the text: as §2

MDA-MB-468 cells [27] = test: Monolayer growth inhibition, Alamar blue assay; format: cell-based; conditions: Homo sapiens; MDA-MB-468 (TNBC), 5 days, single dose on day 1
From the text: as §2

SUM149-PTXR cells [28] = test: Monolayer growth inhibition, Alamar blue assay; format: cell-based, Human; conditions: Homo sapiens; SUM149-PTXR (TNBC, BRCA Mutant), 5 days, single dose on day 1
From the text: as §2

T47D cells [29] = test: Monolayer growth inhibition, Alamar blue assay; format: cell-based, Human; conditions: Homo sapiens; T47D (ER/PR), 5 days, single dose on day 1
From the text: as §2

Row | SMILES | IC50 (JIMT-1 cells [1]) | IC50 (T47D cells [2]) | IC50 (HCC1937 cells [3]) | IC50 (MDA-MB-468 cells [4]) | IC50 (SUM149-PTXR cells [5]) | IC50 (MDA-MB-435 cells [6]) | IC50 (PC3 cells [7]) | IC50 (4T1 cells [8]) | IC50 (HCC1143 cells [9]) | IC50 (MDA-MB-231 cells [10]) | IC50 (SUM149 cells [11]) | IC50 (All cell lines [12]) | IC50 (MDA-MB-468 cells [13]) | IC50 [14] | IC50 (All cell lines [15]) | Solubility, 20 mg/ml Solution [16] | IC50 (MDA-MB-231 cells [17]) | IC50 (4T1 cells [18]) | IC50 (JIMT-1 cells [19]) | IC50 (MDA-MB-435 cells [20]) | other results
1 | C[C@@H]1CNC(=O)c2cc3ccc(C(=O)Nc4cnn(Cc5ccc(C(F)(F)F)cc5)c4)nc3n21 [Compound 22, (R)-9-methyl-6-oxo-N-(1-(4-(trifluoromethyl)benzyl)-1H-pyrazol-4-yl)-6,7,8,9-tetrahydropyrido[3′,2′:4,5]pyrrolo[1,2-a]pyrazine-2-carboxamide] | 14.2 ± 5.1 µM | 4.3 ± 2.1 µM | 9.9 ± 3 µM | 6.6 ± 2.3 µM | 8 ± 1.3 µM | 3200 ± 1300 nM | 6.8 ± 1.8 µM | 2600 ± 1500 nM | 6.6 ± 3.1 µM | 6.6 ± 2.1 µM | 6.2 ± 4.8 µM | 2.6 to 14.2 µM | 6.9 ± 1.7 µM | 24 nM | 4.5 to 17.1 µM | Precipitate | 200 ± 100 nM | 3.8 ± 1.9 µM | 17.1 ± 2.4 µM | 6.8 ± 6.4 µM | IC50 (PC3 cells [21]): 9.2 ± 1.5 µM; IC50 (HCC1937 cells [22]): 12.6 ± 3.5 µM; IC50 (4T1 cells [23]): 4.5 ± 1 µM; IC50 (HCC1143 cells [24]): 9.9 ± 1 µM; IC50 (MDA-MB-231 cells [25]): 13.9 ± 3.5 µM; IC50 (SUM149 cells [26]): 7.7 ± 4.6 µM; IC50 (MDA-MB-468 cells [27]): 7.5 ± 2.1 µM; IC50 (SUM149-PTXR cells [28]): 7.8 ± 4.6 µM; IC50 (T47D cells [29]): 4.8 ± 0.9 µM
2 | C[C@@H]1CNC(=O)c2cc3ccc(C(=O)Nc4cnn(Cc5ccc(F)cc5F)c4)nc3n21 [Compound 23, (R)—N-(1-(2,4-difluorobenzyl)-1H-pyrazol-4-yl)-9-methyl-6-oxo-6,7,8,9-tetrahydropyrido[3′,2′:4,5]pyrrolo[1,2-a]pyrazine-2-carboxamide] | 15 ± 6.1 µM | 4.7 ± 4.9 µM | 8.6 ± 3 µM | 7.2 ± 1.5 µM | 5 ± 2.4 µM | 1100 ± 800 nM | 6.8 ± 1.8 µM | 1800 ± 800 nM | 7.3 ± 3.4 µM | 3.6 ± 0.8 µM | 2.1 ± 1.6 µM | 1.1 to 15 µM | 4 ± 0.8 µM | 33 nM | 1.1 to 19.8 µM | Precipitate | 300 ± 200 nM | 2.4 ± 0.6 µM | 19.8 ± 7.1 µM | 1.1 ± 0.7 µM | IC50 (PC3 cells [21]): 10.7 ± 1.1 µM; IC50 (HCC1937 cells [22]): 10.5 ± 1 µM; IC50 (4T1 cells [23]): 2.5 ± 0.8 µM; IC50 (HCC1143 cells [24]): 9.7 ± 1.3 µM; IC50 (MDA-MB-231 cells [25]): 7.8 ± 2 µM; IC50 (SUM149 cells [26]): 3 ± 2.4 µM; IC50 (MDA-MB-468 cells [27]): 9.7 ± 1.8 µM; IC50 (SUM149-PTXR cells [28]): 5.1 ± 4 µM; IC50 (T47D cells [29]): 6 ± 4.9 µM
